Publication PMC5666514 (Chemical Science, 2015)

Test system: HeLa cells
Assay: DEVDase (caspase 3/7) activity, Ac-DEVD-AFC substrate
Type: cell-based, human
Conditions: 100 nM, 16 h of treatment
Method: Data are mean ± s.e.m. […] Data are given as mean ± s.e.m. […] Non-treated cells were used as control. (F, right panel) Densitometric quantification of cleaved caspase 3 and cleaved PARP levels (relative to control, non-treated cells). β-actin was used for loading normalization. Data are mean ± s.e.m.
Thus, we used the fluorogenic substrate Ac–DEVD–AFC as an indicator of the activation of effector caspases, which are the executioners of apoptosis.
(E) HeLa cells were treated as in (D) and apoptosis was assessed by DEVDase activity (right panel) and western blot of PARP1 and caspase-3 (left panel). β-actin was used for loading normalization. Data are mean ± s.e.m.
DEVDase activity was determined in 30 g of RIPA total protein cell lysate (without protease
inhibitors). Cleavage of the fluorogenic substrated Ac-DEVD-AFC. Caspase 3 and PARP
cleavage were determined in 50 g RIPA total protein cell lysate of control and treated cells.

CO/C1=C\C(C)=C\[C@@H](C)[C@@H](O)[C@@H](C)C/C(C)=C/C=C/[C@H](OC)[C@@H]([C@@H](C)[C@@H](O)[C@H](C)[C@@]2(O)C[C@@H](O)[C@H](C)[C@@H](C(C)C)O2)OC1=O [bafilomycin A1]
apoptosis induction (DEVDase activity, PARP1 and caspase-3 western blot): induces apoptosis
